Results as given in US9090600B2, “Fungicidal 4-substituted-3-{phenyl[(heterocyclylmethoxy)imino]methyl}-1,2,4-oxadizol-5(4H)-one derivatives” (BAYER INTELLECTUAL PROPERTY GMBH, priority 2011, dated 2015).
Marks after values point to notes of the source that are not given here.

Columns and labels:
[1] = tested on: Pyrenophora teres; assay: In vivo test on Pyrenophora teres (barley net blotch); settings: barley plants, spray, 500 ppm, grading 12 days after contamination
Experimental: The active ingredients tested are prepared by homogenization in a mixture of acetone/Tween/DMSO, then diluted with water to obtain the desired active material concentration.
Barley plants (Plaisant variety), sown on a 50/50 peat soil-pozzolana substrate in starter cups and grown at 22° C. (12 h)/20° C. (12 h), are treated at the 1-leaf stage (10 cm tall) by spraying with the active ingredient prepared as described above.
Plants, used as controls, are treated with an aqueous solution not containing the active material.
After 24 hours, the plants are contaminated by spraying them with an aqueous suspension of Pyrenophora teres spores (12.000 spores per ml). The spores are collected from a 12-day-old culture.
The contaminated barley plants are incubated for 24 hours at about 20° C. and at 100% relative humidity, and then for 12 days at 80% relative humidity.
Grading is carried out 12 days after the contamination, in comparison with the control plants.
Under these conditions, good (at least 70%) is observed at a dose of 500 ppm with the following compounds: […]

[2] = tested on: Phytophthora infestans; assay type: in vivo; settings: tomato plants, spray, 500 ppm, grading 5 days after contamination
[3] = pH 2.7
[4] = tested on: Uromyces appendiculatus; assay: In vivo test on Uromyces appendiculatus (brown rust of bean); settings: Saxa variety plants, spray, 500 ppm, grading 10 days after contamination
[5] = tested on: Alternaria brassicae; assay: In vivo test on Alternaria brassicae (leaf spot of crucifers); settings: radish plants, spray, 500 ppm, grading 6 to 7 days after contamination
Experimental: (§1) The active ingredients tested are prepared by homogenization in a mixture of acetone/tween/DMSO, then diluted with water to obtain the desired active material.
Radish plants (Pernot variety), sown on a 50/50 peat soil-pozzolana substrate in starter cups and grown at 18-20° C., are treated at the cotyledon stage by spraying with the active ingredient prepared as described above.
Plants, used as controls, are treated with the mixture of acetone/tween/water not containing the active material.
After 24 hours, the plants are contaminated by spraying them with an aqueous suspension of Alternaria brassicae spores (40,000 spores per cm^3). The spores are collected from a 12 to 13 days-old culture.
The contaminated radish plants are incubated for 6-7 days at about 18° C., under a humid atmosphere.
Grading is carried out 6 to 7 days after the contamination, in comparison with the control plants.
Under these conditions, good protection (at least 70%) is observed at a dose of 500 ppm with the following compounds: […]

[6] = tested on: Mycosphaerella graminicola; assay: In vivo test on Mycosphaerella graminicola (wheat leaf spot); settings: wheat plants, spray, 500 ppm, grading 21 to 28 days after contamination
Procedure, shortened: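 Scipion wheat at 1-leaf stage was sprayed with compound suspension (acetone/tween/DMSO diluted in water), then inoculated 24 h later with spores (500.000/ml). Plants were held 72 h at 18° C and 100% RH, then 21 to 28 days at 90% RH. Efficacy was graded as % versus untreated controls.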

[7] = tested on: Puccinia recondita; assay: In vivo test on Puccinia recondita (brown rust); settings: wheat plants, spray, 500 ppm, grading 10 days after contamination
Procedure, shortened: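 Wheat (Scipion) at the 1-leaf stage sprayed with compound suspension (acetone/tween/DMSO diluted in water), then inoculated 24 h later with Puccinia recondita spores at 100.000 spores per ml. Plants were held 24 h at 20 °C/100% RH, then 10 days at 20 °C/70% RH; protection graded 10 days post-inoculation versus untreated controls.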

[8] = tested on: Sphaerotheca fuliginea; assay: In vivo test on Sphaerotheca fuliginea (cucurbits powdery mildew); settings: gherkin plants, spray, 500 ppm, grading 12 days after contamination
Experimental: as §1
Gherkin plants (Vert petit de Paris variety) in starter cups, sown on a 50/50 peat soil-pozzolana substrate and grown at 20° C./23° C., are treated at the cotyledon Z10 stage by spraying with the aqueous suspension described above. Plants, used as controls, are treated with an aqueous solution not containing the active material.
After 24 hours, the plants are contaminated by spraying them with an aqueous suspension of Sphaerotheca fuliginea spores (100.000 spores per ml). The spores are collected from a contaminated plants. The contaminated gherkin plants are incubated at about 20° C./25° C. and at 60/70% relative humidity.
Grading (% of efficacy) is carried out 12 days after the contamination, in comparison with the control plants.
Under these conditions, good (at least 70%) or total protection is observed at a dose of 500 ppm with the following compounds: […]

For `COc1cccc(C(=O)Nc2nc(CO/N=C(/c3ccccc3)c3noc(=O)n3C)cs2)c1` [Example 212], the Eff. % [1] was 97%, the Eff. % [2] was 73% and the LogP [3] was 3.58 [a]. It also gave an Eff. % [4] of 100%, an Eff. % [5] of 70% and an Eff. % [6] of 100%. The Eff. % [7] was 89% and the Eff. % [8] was 100%.
